SMILES strings stand for the structures. pIC50: −log10 of the molar value.

The target of one experiment is T1, purified human 15-lipoxygenase (Homo sapiens, UniProt P16050).
T1 sequence (P16050 1-662): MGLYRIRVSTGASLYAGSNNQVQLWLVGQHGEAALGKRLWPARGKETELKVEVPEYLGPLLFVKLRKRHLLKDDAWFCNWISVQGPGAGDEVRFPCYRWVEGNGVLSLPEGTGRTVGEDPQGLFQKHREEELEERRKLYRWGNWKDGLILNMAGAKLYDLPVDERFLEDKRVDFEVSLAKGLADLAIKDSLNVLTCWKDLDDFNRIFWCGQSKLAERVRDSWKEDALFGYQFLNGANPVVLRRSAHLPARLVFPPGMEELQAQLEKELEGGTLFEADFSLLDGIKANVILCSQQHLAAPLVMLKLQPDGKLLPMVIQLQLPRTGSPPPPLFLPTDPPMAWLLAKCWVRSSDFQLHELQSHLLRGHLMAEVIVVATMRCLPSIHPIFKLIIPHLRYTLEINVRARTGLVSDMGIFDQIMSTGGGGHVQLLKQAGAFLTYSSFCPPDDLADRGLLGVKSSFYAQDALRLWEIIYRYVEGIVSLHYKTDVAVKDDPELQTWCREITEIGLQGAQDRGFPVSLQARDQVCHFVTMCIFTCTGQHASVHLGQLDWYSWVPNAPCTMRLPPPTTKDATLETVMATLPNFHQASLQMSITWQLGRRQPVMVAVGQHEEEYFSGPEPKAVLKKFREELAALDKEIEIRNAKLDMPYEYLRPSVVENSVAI
The experiment in a line: 15-lipoxygenase inhibition assay (arachidonic acid oxidation, reverse phase HPLC readout).
Conditions: not given
The format is biochemical. How it is done: The assay employed takes advantage of the ability of lipoxygenases to oxidize polyunsaturated fatty acids, containing a 1,4-cis-pentadiene configuration, to their corresponding hydroperoxy or hydroxyl derivatives. In this particular assay, the lipoxygenase was a purified human 15-lipoxygenase and the fatty acid was arachidonic acid. The assay is performed at room temperature (20-22° C.) and the following are added to each well in a 96-well microtiter plate:
a) 35 μL phosphate buffered saline (PBS) (pH 7.4); b) inhibitor (i.e. compound) or vehicle (0.5 μl DMSO); c) 10 μL of a 10× concentrated solution of 15-lipoxygenase in PBS. […] The plate is then incubated for 10 minutes at room temperature; e) the enzymatic reaction is terminated by the addition of 100 μl methanol; and f) the amount of 15-hydroperoxy-eicosatetraenoic acid or 15-hydroxy-eicosatetraenoic acid is measured by reverse phase HPLC.
Regarding `c1ccc2oc(-c3cc[nH]n3)nc2c1` [Example 1, 2-(Pyrazol-3-yl)-benzoxazole], the pIC50 is 6.65.

The experiment is the same for the next values; noted with them: arachidonic acid substrate, room temperature (20-22° C.), PBS pH 7.4; read-out: IC50.
For the molecule `Clc1cc(-c2nc3ccccc3o2)n[nH]1` [Example 11, 2-(5-Chloropyrazol-3-yl)benzoxazole], the pIC50 is 7.48.

Consider `Fc1cccc2nc(-c3cc(Cl)[nH]n3)oc12` [Example 15, 2-(5-Chloropyrazol-3-yl)-7-fluorobenzoxazole], for which the pIC50 was 7.39.

With `Fc1cccc2oc(-c3cc(Cl)[nH]n3)nc12` [Example 17, 2-(5-Chloropyrazol-3-yl)-4-fluorobenzoxazole], the pIC50 is 7.31.

Consider `Fc1cccc2oc(-c3n[nH]c(Cl)c3Cl)nc12` [Example 18, 2-(4,5-Dichloropyrazol-3-yl)-4-fluorobenzoxazole], for which the negative-log IC50 (pIC50) is 7.46.

`Clc1[nH]nc(-c2nc3cccnc3o2)c1Cl` [Example 32, 2-(4,5-Dichloropyrazol-3-yl)oxazolo[5,4-b]pyridine]: the pIC50 was 6.90.

As for `FC(F)(F)c1cnc2oc(-c3n[nH]c(Cl)c3Cl)nc2c1` [Example 33, 2-(4,5-Dichloropyrazol-3-yl)-6-(trifluoromethyl)-oxazolo[5,4-b]pyridine], the pIC50 is 7.07.

As a reminder, the pIC50 is the IC50 on a negative log10 scale, so that one unit is a factor of ten.

Values taken from US20100120839A1, “PYRAZOLES USEFUL IN THE TREATMENT OF INFLAMMATION” (Biolipox AB, priority 2007, published 2010).
